Laboratory results taken from patent US12655174B2, “Adenosine A3 receptor agonists, preparation methods and uses thereof” (ZHEJIANG VIMGREEN PHARMACEUTICALS, LTD., priority 2020, dated 2026).

How the values were obtained:
[1] = Pharmacokinetic test of compound in SD rat; type: in vivo; details: SD rats, intragastric administration (IG), cassette dosing
Description: Example 28: Pharmacokinetic Test of Compound in SD Rat
The animal species used in this experiment were SD rats. There were 3 animals per group. The rats were dosed in cassette format, i.e., multiple (1-6) different compounds were dosed simultaneously to the same group of the SD rats. The vehicle used for the drug was 5% DMSO+5% Solutl+90% ([…] methylcellulose M450), and the administration route was intragastric administration (IG).

ADORA3 receptor = biological target: T1, ADORA3 receptor (Homo sapiens, UniProt P0DMS8); experiment: Agonistic effect on adenosine A3 receptor by FLIPR assay (calcium flux assay); type: cell-based; details: agonist mode
T1 sequence (P0DMS8 1-318): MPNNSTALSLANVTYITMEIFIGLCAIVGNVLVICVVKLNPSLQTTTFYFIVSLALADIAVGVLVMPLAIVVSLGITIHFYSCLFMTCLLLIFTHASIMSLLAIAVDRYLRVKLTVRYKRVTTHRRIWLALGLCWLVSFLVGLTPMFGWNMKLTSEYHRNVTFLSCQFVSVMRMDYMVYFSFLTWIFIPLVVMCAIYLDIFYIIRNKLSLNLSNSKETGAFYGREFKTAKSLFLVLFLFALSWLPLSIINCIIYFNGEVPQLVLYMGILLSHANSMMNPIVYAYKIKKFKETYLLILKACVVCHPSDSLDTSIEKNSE
Description: Example 27: Agonistic Effect of Compound on Adenosine A3 Receptor by FLIPR Assay (Calcium Flux Assay)
First Day: Cell Inoculation
• 1) With regard to ADORA3 receptor, cultured cells were used for inoculation: the culture medium was aspirated and the cells were washed twice with 10 mL of DPBS. 2 mL of 0.05% EDTA-trypsin was added and the cells were incubated at 37° C. for 1 minute. Then 10 mL of the culture medium was added to stop the digestion and the cell suspension was transferred to a 50-mL tapered tube. • 2) The 50-mL tapered tube containing the various cells was centrifuged at 300 g for 5 minutes. • 3) A supernatant was aspirated and no cells should be aspirated. • 4) The cell precipitate was resuspended in 6-8 mL of the culture medium, and then 0.5 mL of the cells were taken out for cell counting by using a Vi-cell XR cell viability analyzer. • 5) The cell suspension was diluted to 1×10^6 cells/mL (20 μL of 20,000 cells per well) in the culture medium and the cells were inoculated into a cell plate (384-well Poly-D-lysine protein-coated plate, Greiner-781946). • 6) The plate was placed in a 37° C./5% CO2 incubator for 16-20 hours. Second Day: • 1) Preparation of 2×Fluo-4 Direct™ uptaking dye • a. Preparation of probenecid solution • 1 mL of FLIPR assay buffer was added to 77 mg of probenecid (provided by Fluo-4 Direct™ calcium assay kit) to be prepared into 250 mM of a probenecid solution. The fresh probenecid solution was used daily. • b. 2×(8 μM) Fluo-4 Direct™ loading dye (per 10 mL)
A vial of the Fluo-4 Direct™ crystal was thawed and then 10 mL of the FLTPR analytical buffer was added to the vial. Then 0.2 mL of 250 mM of a probe solution was added to every 10 mL Fluo-4 Direct™ crystal to a final assay concentration of 2.5 mM. The solution was vortexed and stood for >5 min at a dark place. 2×Fluo-4 Direct™ uptaking dye was freshly prepared daily. • 2) Compound preparation • a. Preparation of compound plate: all reference and test compounds were serially diluted 4-fold in 10 points by using an Echo liquid processor and then 900 nL of the diluted compounds were transferred to a compound plate. • b. 30 μL FLIPR analytical buffer was added to the compound plate and the plate was centrifuged at 300 g for 1 minute. • 3) FLIPR analysis • a. With regard to ADORA3 receptor: firstly, the cell plate was taken out from a culture box. The culture medium was then aspirated and 20 μL of the FLIPR analytical buffer was added. The cell plate was placed in an incubator for 45 minutes and at a room temperature for 15 minutes. • b. To run an experimental solution on […], 10 μL of the FLIPR analytical buffer was transferred from the compound plate to a cell plate, and then the fluorescent signal was read. Then 10 μL of a compound solution was transferred from the compound plate to the cell plate and the fluorescence signal was read. “Max−min” was calculated from Reader 91 to an allowed maximum value. • c. With regard to agonist: activation %=(RLU−LC)/(HC−LC)*100, • wherein RLU=relative light unit, allowed maximum signal was 91; HC=average signal of high concentration agonist; and LC=mean signal of DMSO well. • d. Data were fitted to a model “log (agonist) versus response-variable slope” by using GraphPad Prism 5 to determine an EC50 value. • e. […] 2. Test Result

[2] = biological target: T2, ADORA3 receptor (CHO cells stably expressing ADORA3 receptor) (Homo sapiens, UniProt P0DMS8); experiment: Effect of compound on intracellular cAMP level by adenosine A3 receptor agonism; type: cell-based; details: forskolin-stimulated
T2 construct: expressed in transfected cells
T2 sequence (P0DMS8 1-318): T1 sequence (P0DMS8 1-318)
Procedure, shortened: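 Agonism read as change in forskolin-stimulated cAMP by TR-FRET competition (Eu-cAMP tracer, ULight anti-cAMP antibody). Compound tested as 10 three-fold dilutions on ADORA3-CHO cells in buffer containing rolipram, incubated at 37 °C. Hill fit of % activation against log concentration gives EC50.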

Compound | AUC_D [1] [kg·ng·h/mL/mg] | EC50 (ADORA3 receptor) [nM] | EC50 [2] [nM]
[2H]C([2H])([2H])NC(=O)[C@H]1O[C@@H](n2cnc3c(NCc4ccco4)nc(-c4cncc(Cl)c4)nc32)[C@H](O)[C@@H]1O [compound 256, (2S,3S,4R,5R)-5-(2-(5-chloropyridin-3-yl)-6-((furan-2-ylmethyl)amino)-9H-purin-9-yl)-3,4-dihydroxyl-N-(methyl-d3)tetrahydrofuran-2-carboxamide] | 706.00 | 98.5 | 11.6
CNC(=O)[C@H]1O[C@@H](n2cnc3c(NCc4ccccn4)nc(-c4cncc(Cl)c4)nc32)[C@H](O)[C@@H]1O [compound 306, (2S,3S,4R,5S)-5-(2-(5-chloropyridin-3-yl)-6-((pyridin-2-lymethyl)amino)-9H-purin-9-yl)-3,4-dihydroxyl-N-methyltetrahydrofuran-2-carboxamide] | 659.04 | 39.2 | 5.81
CNC(=O)[C@H]1O[C@@H](n2cnc3c(NCc4cccc(Cl)n4)nc(-c4cncc(Cl)c4)nc32)[C@H](O)[C@@H]1O [compound 308] | 986.00 | 71.4 | 3.27

The next compounds have a lower EC50 (ADORA3 receptor) than those just listed; values first:

AUC_D [1] [kg·ng·h/mL/mg] | EC50 (ADORA3 receptor) [nM] | EC50 [2] [nM] | Compound
20055.61 | 33.5 | 1.2 | CNC(=O)[C@H]1O[C@@H](n2cnc3c(NCc4cc(C)ccc4F)nc(-c4cncc(Cl)c4)nc32)[C@H](O)[C@@H]1O [compound 226, (2S,3S,4R,5R)-5-(2-(5-chloropyridin-3-yl)-6-((2-fluoro-5-methylbenzyl)amino)-9H-purin-9-yl)-3,4-dihydroxyl-N-methyltetrahydrofuran-2-carboxamide]
1820.66 | 4.05 | < 0.51 | CNC(=O)[C@H]1O[C@@H](n2cnc3c(NCc4cc(C)ccn4)nc(-c4cncc(OC)c4)nc32)[C@H](O)[C@@H]1O [compound 312]
2016.46 | 3.27 | < 0.51 | CNC(=O)[C@H]1O[C@@H](n2cnc3c(NCc4cc(C)ccn4)nc(-c4cncc(Cl)c4)nc32)[C@H](O)[C@@H]1O [compound 293, (2S,3S,4R,5R)-5-(2-(5-chloropyridin-3-yl)-6-(((4-methylpyridin-2-yl)methyl)amino)-9H-purin-9-yl)-3,4-dihydroxyl-N-methyltetrahydrofuran-2-carboxamide]
